These results are taken from patent publication US10342766B2, “6-shogaol derivatives and activities thereof” (North Carolina Agricultural and Technical State University, priority 2017, dated 2019).

For orientation: IC50 means the concentration that inhibits the measured activity by half.

One experiment concerns heme oxygenase-1 (HO-1). Put plainly: Western blotting of HO-1 expression in CCD 841 CoN cells. In kind it is cell-based, human. The procedure: Human normal colonic epithelial cells (CCD 841 CoN) were grown in Eagle's Minimum Essential Medium with 10% fetal bovine serum and 1% penicillin/streptomycin, and maintained at 37° C. in a 100% humidified atmosphere of 5% CO2 and 95% air. Fresh growth medium was added to the cells every two days until confluent. Cells were planted in 145×20 mm flat-bottomed tissue culture dishes and growth to 70-80% confluence and then treated with compound 27 for various doses and time points. At the end of incubation period, cell lysates were prepared in ice-cold Cell Lysis Buffer (Cell Signaling, Danvers, Mass., United States of America) with 1% protease inhibitor cocktail and 1% phenylmethylsulfonyl fluoride (Sigma, St. Louis, Mo., United States of America). Protein concentrations were measured using BCA Protein Assay Kit (Thermo Scientific, Rockford, Ill., United States of America). […] The bound complexes were detected with SuperSignal Chemiluminescent Substract (Thermo Scientific, Rockford, Ill., United States of America). The immunoblot bands were quantified by densitometry analysis, and the ratio to β-actin was calculated and presented.
(In general: In western blotting, separated proteins are transferred to a membrane and probed.)

Experiment [1] deals with human colon cancer cells HCT-116. Put plainly: MTT growth inhibition, HCT-116. The experiment is classed as cell-based. To be noted: 24 hours. The procedure:
(§1) Cell viability was determined by an MTT colorimetric assay. Briefly, human colon cancer cells HCT-116 or HT-29, were plated in 96-well microtiter plates with 3000 cells/well and allowed to attach for 24 hours at 37° C. and 5% CO2. The test compounds (in DMSO) were added to cell culture medium to desired final concentrations (final DMSO concentrations for control and treatments were 0.1%). After the cells were cultured for 24 hours, the medium was aspirated and cells were treated with 200 μL fresh medium containing 2.41 mmol/L MTT. After incubation for 3 hours at 37° C., the medium containing MTT was aspirated, 100 μL of DMSO was added to solubilize the formazan precipitate, and the plates were shaken gently for an hour at room temperature. Absorbance values were derived from the plate reading at 550 nm on a Biotek (Winooski, Vt., United States of America) microtiter plate reader. The reading reflected the number of viable cells and was expressed as a percentage of viable cells in the control. CCD-18Co cells were grown in EMEM. Both HCT-116 and HT-29 cells were cultured in McCoy's 5A medium. All of the above media were supplemented with 10% fetal bovine serum, 1% penicillin/streptomycin, and 1% glutamine, and the cells were kept in a 37° C. incubator with 95% humidity and 5% CO2.

The subject of experiment [2] is human colon cancer cells HT-29. As to the kind of experiment: MTT growth inhibition, HT-29. In kind it is cell-based. To be noted: 24 hours. As for the experimental part:
as §1

Entries after “also recorded” stand apart in the source; their conditions may differ.

With `CCCCCCCC(=O)/C=C/c1ccc(O)c(O)c1` [Compound 27], the “HO-1 expression, time dependence” value in the experiment with heme oxygenase-1 (HO-1) (10 μM for 3, 6, 12 and 24 h, vs control (0 h)) is on record as “significantly increased HO-1 expression; also recorded: increased HO-1 expression in a time-dependent manner”. Further, in the experiment with heme oxygenase-1 (HO-1) (5, 10 and 20 μM for 24 h, vs untreated control), the “HO-1 protein expression, dose dependence” value was “significantly increased HO-1 protein expression; also recorded: increased HO-1 expression in a dose-dependent manner”. The IC50 in experiment [1] turned out to be 34.1 µM; in experiment [2] it was 78.4 µM.
